Patent US7880007B2, “Bicyclic substituted phenyl piperidine modulators of muscarinic receptors” (Vertex Pharmaceuticals Incorporated, priority 2004, dated 2011)

Tests used:
Format in all cases: cell-based
[1] = biological target: T1, M3 muscarinic receptor (Homo sapiens, UniProt P20309); experiment: Functional mobilization of intracellular calcium (FLIPR), M3-CHO cells; conditions: for Emax: 100% efficacy = maximum response obtained with the Carbachol control; for M3 Activity: M3-CHO cells, calcium mobilization (FLIPR)
T1 construct: expressed in transfected cells; host or cells: CHO (M3-CHO)
Outline: (§1)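 FLIPR fluorescence (ex 488, em 540 nm) recorded 60 sec after compound addition to dye-loaded CHO cells. Agonist mode: compound alone. Antagonist mode: 15 min compound pre-incubation, then carbachol at EC80, or co-application. Efficacy expressed as % of maximal carbachol response.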

[2] = biological target: T2, M2 muscarinic receptor (Homo sapiens, UniProt P08172); experiment: Functional mobilization of intracellular calcium (FLIPR), M2-CHO cells; conditions: for Emax: 100% efficacy = maximum response obtained with the Carbachol control; for M2 Activity: M2-CHO cells, calcium mobilization (FLIPR)
T2 construct: expressed in transfected cells; host or cells: CHO (M2-CHO)
T2 sequence (P08172 1-466): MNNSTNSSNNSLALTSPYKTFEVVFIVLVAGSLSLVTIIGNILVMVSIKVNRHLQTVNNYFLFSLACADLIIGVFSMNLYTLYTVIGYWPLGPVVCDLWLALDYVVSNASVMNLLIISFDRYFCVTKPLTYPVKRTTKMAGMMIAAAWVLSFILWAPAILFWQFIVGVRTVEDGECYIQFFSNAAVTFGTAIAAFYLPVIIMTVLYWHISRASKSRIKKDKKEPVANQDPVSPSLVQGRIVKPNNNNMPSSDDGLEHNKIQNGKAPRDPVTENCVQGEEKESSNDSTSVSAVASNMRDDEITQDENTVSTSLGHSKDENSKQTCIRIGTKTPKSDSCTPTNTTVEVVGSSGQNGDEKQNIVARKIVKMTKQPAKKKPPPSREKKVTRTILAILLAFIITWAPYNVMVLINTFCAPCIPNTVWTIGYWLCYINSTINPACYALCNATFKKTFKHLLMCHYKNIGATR
Outline: as §1

[3] = biological target: T3, M1 muscarinic receptor (Homo sapiens, UniProt P11229); experiment: Functional mobilization of intracellular calcium (FLIPR), M1-CHO cells; conditions: for Emax: 100% efficacy = maximum response obtained with the Carbachol control; for M1 Activity: M1-CHO cells, calcium mobilization (FLIPR)
T3 construct: expressed in transfected cells; host or cells: CHO (M1-CHO)
T3 sequence (P11229 1-460): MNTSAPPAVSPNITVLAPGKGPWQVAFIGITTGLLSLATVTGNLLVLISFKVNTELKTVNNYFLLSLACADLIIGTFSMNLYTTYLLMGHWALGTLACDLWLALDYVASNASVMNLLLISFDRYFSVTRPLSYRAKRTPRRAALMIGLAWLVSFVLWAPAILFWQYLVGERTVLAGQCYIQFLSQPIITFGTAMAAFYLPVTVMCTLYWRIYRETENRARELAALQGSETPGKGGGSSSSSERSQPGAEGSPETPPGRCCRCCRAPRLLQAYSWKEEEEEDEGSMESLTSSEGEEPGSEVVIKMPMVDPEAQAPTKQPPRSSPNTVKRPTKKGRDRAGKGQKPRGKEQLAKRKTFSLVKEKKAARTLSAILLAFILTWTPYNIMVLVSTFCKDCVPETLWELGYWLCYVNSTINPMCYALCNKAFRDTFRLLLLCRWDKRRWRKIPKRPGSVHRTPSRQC
Outline: as §1

[4] = biological target: T4, M4 muscarinic receptor (Homo sapiens, UniProt P08173); experiment: Functional mobilization of intracellular calcium (FLIPR), M4-CHO cells; conditions: for Emax: 100% efficacy = maximum response obtained with the Carbachol control; for M4 Activity: M4-CHO cells, calcium mobilization (FLIPR)
T4 construct: expressed in transfected cells; host or cells: CHO (M4-CHO)
T4 sequence (P08173 1-479): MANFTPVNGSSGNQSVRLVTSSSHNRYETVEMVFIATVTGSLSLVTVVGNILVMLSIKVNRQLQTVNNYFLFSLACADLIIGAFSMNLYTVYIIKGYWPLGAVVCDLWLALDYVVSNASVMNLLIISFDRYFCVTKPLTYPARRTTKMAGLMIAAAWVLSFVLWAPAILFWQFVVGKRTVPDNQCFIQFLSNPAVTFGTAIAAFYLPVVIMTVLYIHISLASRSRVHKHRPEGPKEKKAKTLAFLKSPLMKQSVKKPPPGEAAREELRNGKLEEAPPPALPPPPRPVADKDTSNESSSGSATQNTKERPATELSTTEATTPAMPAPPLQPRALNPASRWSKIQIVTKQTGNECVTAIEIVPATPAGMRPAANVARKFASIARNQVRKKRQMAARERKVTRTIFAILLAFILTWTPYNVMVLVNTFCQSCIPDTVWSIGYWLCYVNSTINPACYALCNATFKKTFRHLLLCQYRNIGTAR
Outline: as §1

T1 sequence (P20309 whole entry): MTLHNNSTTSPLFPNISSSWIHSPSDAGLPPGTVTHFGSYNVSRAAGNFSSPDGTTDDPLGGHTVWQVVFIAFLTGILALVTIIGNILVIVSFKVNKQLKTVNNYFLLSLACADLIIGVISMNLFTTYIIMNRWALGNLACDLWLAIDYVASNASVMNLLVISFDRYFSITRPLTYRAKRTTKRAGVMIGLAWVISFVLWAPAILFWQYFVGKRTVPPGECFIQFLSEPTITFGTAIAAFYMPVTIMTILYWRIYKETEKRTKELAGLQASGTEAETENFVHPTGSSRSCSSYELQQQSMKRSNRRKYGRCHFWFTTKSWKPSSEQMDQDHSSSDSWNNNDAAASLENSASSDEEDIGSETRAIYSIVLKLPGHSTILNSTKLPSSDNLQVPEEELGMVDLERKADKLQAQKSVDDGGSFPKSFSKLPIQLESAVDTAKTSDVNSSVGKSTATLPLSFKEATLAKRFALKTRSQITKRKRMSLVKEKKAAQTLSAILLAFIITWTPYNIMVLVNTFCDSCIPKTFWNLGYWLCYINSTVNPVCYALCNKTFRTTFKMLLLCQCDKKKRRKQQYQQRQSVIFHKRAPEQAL

## COc1ccccc1C1CCN(C2CCCCCC2)CC1 [Compound 224]
[1]
  Emax: < 25%
  M3 Activity: + (activity was measured to be greater than 5.0 μM)
[2]
  Emax: < 25%
  M2 Activity: + (activity was measured to be greater than 5.0 μM)
[3]
  Emax: 25 to 100%
  M1 Activity: + (activity was measured to be greater than 5.0 μM)
[4]
  Emax: 25 to 100%
  M4 Activity: +++ (activity was measured to be less than 1.0 μM)

## Cc1cccc(C2CCN(C3C[C@H]4CC[C@H]3C4)CC2)c1C (stereo partly drawn) [Compound 225]
[1]
  Emax: < 25%
  M3 Activity: + (activity was measured to be greater than 5.0 μM)
[2]
  Emax: < 25%
  M2 Activity: + (activity was measured to be greater than 5.0 μM)
[3]
  Emax: 25 to 100%
  M1 Activity: + (activity was measured to be greater than 5.0 μM)
[4]
  Emax: 25 to 100%
  M4 Activity: ++ (activity was measured to be from 1.0 μM to 5.0 μM)

## CCOC(=O)N1C2CCC1CC(N1CCC(c3cc(-c4ccc(C(=O)NC)c(Cl)c4)ccc3OC)CC1)C2 (stereo not drawn) [Compound 226]
[1]
  Emax: < 25%
  M3 Activity: + (activity was measured to be greater than 5.0 μM)
[2]
  Emax: < 25%
  M2 Activity: + (activity was measured to be greater than 5.0 μM)
[3]
  Emax: < 25%
  M1 Activity: + (activity was measured to be greater than 5.0 μM)
[4]
  Emax: 25 to 100%
  M4 Activity: ++ (activity was measured to be from 1.0 μM to 5.0 μM)

## COc1cc(F)c(F)cc1C1CCN([C@H]2C[C@H]3CC[C@H]2C3)CC1 [Compound 227]
[1]
  Emax: < 25%
  M3 Activity: + (activity was measured to be greater than 5.0 μM)
[2]
  Emax: < 25%
  M2 Activity: + (activity was measured to be greater than 5.0 μM)
[3]
  Emax: 25 to 100%
  M1 Activity: + (activity was measured to be greater than 5.0 μM)
[4]
  Emax: 25 to 100%
  M4 Activity: ++ (activity was measured to be from 1.0 μM to 5.0 μM)

## COc1ccc(C(=O)c2ccsc2)cc1C1CCN([C@H]2C[C@H]3CC[C@H]2C3)CC1 [Compound 230]
[1]
  Emax: < 25%
  M3 Activity: + (activity was measured to be greater than 5.0 μM)
[2]
  Emax: < 25%
  M2 Activity: + (activity was measured to be greater than 5.0 μM)
[3]
  Emax: < 25%
  M1 Activity: + (activity was measured to be greater than 5.0 μM)
[4]
  Emax: 25 to 100%
  M4 Activity: +++ (activity was measured to be less than 1.0 μM)

## COc1ccc(F)cc1C1(O)CCN(CC2CCOCC2)CC1 [Compound 231]
[1]
  Emax: < 25%
  M3 Activity: + (activity was measured to be greater than 5.0 μM)
[2]
  Emax: < 25%
  M2 Activity: + (activity was measured to be greater than 5.0 μM)
[3]
  Emax: < 25%
  M1 Activity: + (activity was measured to be greater than 5.0 μM)
[4]
  Emax: < 25%
  M4 Activity: + (activity was measured to be greater than 5.0 μM)

## COc1ccccc1C1CCN(CC2CCCC2)CC1 [Compound 232]
[1]
  Emax: < 25%
  M3 Activity: + (activity was measured to be greater than 5.0 μM)
[2]
  Emax: < 25%
  M2 Activity: + (activity was measured to be greater than 5.0 μM)
[3]
  Emax: 25 to 100%
  M1 Activity: + (activity was measured to be greater than 5.0 μM)
[4]
  Emax: 25 to 100%
  M4 Activity: ++ (activity was measured to be from 1.0 μM to 5.0 μM)

## COc1ccccc1C1CCN(CC2CCOCC2)CC1 [Compound 233]
[1]
  Emax: < 25%
  M3 Activity: + (activity was measured to be greater than 5.0 μM)
[2]
  Emax: < 25%
  M2 Activity: + (activity was measured to be greater than 5.0 μM)
[3]
  Emax: 25 to 100%
  M1 Activity: + (activity was measured to be greater than 5.0 μM)
[4]
  Emax: 25 to 100%
  M4 Activity: ++ (activity was measured to be from 1.0 μM to 5.0 μM)

## COc1ccccc1C1CCN(C2CCC(c3ccccc3)CC2)CC1 (stereo not drawn) [Compound 234]
[1]
  Emax: < 25%
  M3 Activity: + (activity was measured to be greater than 5.0 μM)
[2]
  Emax: < 25%
  M2 Activity: + (activity was measured to be greater than 5.0 μM)
[3]
  Emax: < 25%
  M1 Activity: + (activity was measured to be greater than 5.0 μM)
[4]
  Emax: < 25%
  M4 Activity: + (activity was measured to be greater than 5.0 μM)

## COc1ccccc1C1CCN(C2CCOCC2)CC1O (stereo not drawn) [Compound 235]
[1]
  Emax: < 25%
  M3 Activity: + (activity was measured to be greater than 5.0 μM)
[2]
  Emax: < 25%
  M2 Activity: + (activity was measured to be greater than 5.0 μM)
[3]
  Emax: 25 to 100%
  M1 Activity: + (activity was measured to be greater than 5.0 μM)
[4]
  Emax: 25 to 100%
  M4 Activity: + (activity was measured to be greater than 5.0 μM)

## c1cc2c(c(C3CCN(C4C[C@@H]5CC[C@@H]4C5)CC3)c1)OCO2 (stereo partly drawn) [Compound 236]
[1]
  Emax: < 25%
  M3 Activity: + (activity was measured to be greater than 5.0 μM)
[2]
  Emax: < 25%
  M2 Activity: + (activity was measured to be greater than 5.0 μM)
[3]
  Emax: 25 to 100%
  M1 Activity: ++ (activity was measured to be from 1.0 μM to 5.0 μM)
[4]
  Emax: 25 to 100%
  M4 Activity: +++ (activity was measured to be less than 1.0 μM)

## COc1ccc(-c2ccoc2)cc1C1CCN([C@@H]2C[C@H]3CC[C@H]2C3)CC1 [Compound 237]
[1]
  Emax: < 25%
  M3 Activity: + (activity was measured to be greater than 5.0 μM)
[2]
  Emax: < 25%
  M2 Activity: + (activity was measured to be greater than 5.0 μM)
[3]
  Emax: < 25%
  M1 Activity: + (activity was measured to be greater than 5.0 μM)
[4]
  Emax: 25 to 100%
  M4 Activity: ++ (activity was measured to be from 1.0 μM to 5.0 μM)

## COC(=O)CC1CCCC(N2CCC(c3ccccc3OC)CC2)C1 (stereo not drawn) [Compound 238]
[1]
  Emax: < 25%
  M3 Activity: + (activity was measured to be greater than 5.0 μM)
[2]
  Emax: < 25%
  M2 Activity: + (activity was measured to be greater than 5.0 μM)
[3]
  Emax: 25 to 100%
  M1 Activity: + (activity was measured to be greater than 5.0 μM)
[4]
  Emax: 25 to 100%
  M4 Activity: +++ (activity was measured to be less than 1.0 μM)

## COc1ccc(F)cc1C1(F)CCN(CC2CCOCC2)CC1 [Compound 239]
[1]
  Emax: < 25%
  M3 Activity: + (activity was measured to be greater than 5.0 μM)
[2]
  Emax: < 25%
  M2 Activity: + (activity was measured to be greater than 5.0 μM)
[3]
  Emax: 25 to 100%
  M1 Activity: + (activity was measured to be greater than 5.0 μM)
[4]
  Emax: 25 to 100%
  M4 Activity: ++ (activity was measured to be from 1.0 μM to 5.0 μM)

## COc1ccc(-c2ccccc2C2CCN([C@H]3C[C@H]4CC[C@H]3C4)CC2)cc1 [Compound 241]
[1]
  Emax: < 25%
  M3 Activity: + (activity was measured to be greater than 5.0 μM)
[2]
  Emax: < 25%
  M2 Activity: + (activity was measured to be greater than 5.0 μM)
[3]
  Emax: 25 to 100%
  M1 Activity: + (activity was measured to be greater than 5.0 μM)
[4]
  Emax: 25 to 100%
  M4 Activity: ++ (activity was measured to be from 1.0 μM to 5.0 μM)
